Results reported in US20150218172A1, “Pyrrolo[2,3-D]Pyrimidine Tropomyosin-Related Kinase Inhibitors” (PFIZER LIMITED, priority 2012, published 2015).
Read-outs that look alike come from different tables or passages of the source.

Biological target: T1, TrkA (Homo sapiens, UniProt P04629)
T1 construct: aa 441-796; His; purchased Invitrogen PV3144
Assay: Isolated TRK enzyme assay (HTRF KinEASE-TK kit), PV3144 TrkA enzyme assay
Type: biochemical
Description: Isolated TRK Enzyme assays use the HTRF KinEASE-TK kit (Cisbio Cat#62TK0PEJ) with recombinant His-tagged cytoplasmic domains of each TRK receptor sourced from Invitrogen (see table below). This activity-assay measures the phosphorylation of tyrosine residues within a substrate from the HTRF kit which has been validated by Cisbio for a variety of tyrosine kinases including the TRK receptors.
0.5 mM stock solutions of test compounds are prepared and serially diluted in 100% DMSO. A standard curve using the compound of Example 135 disclosed in WO2005/116035 of 150 uM is also prepared on each test plate. High percentage effect (HPE) is defined by 150 uM (using the compound of Example 135 as disclosed in WO2005/116035) and 0% effect (ZPE) is defined by 100% DMSO. Greiner low volume black plates containing 0.2 ul of serially diluted compound, standard and HPE/ZPE are created using the Bravo nanolitre dispenser.
1X enzyme buffer is prepared from 5X Enzymatic Buffer from the Cisbio KinEASE TK kit using MilliQ water. The buffer is then supplemented with 10 mM MgCl and 2 mM DTT (both from Sigma). In the case of TRKB, the buffer is also supplemented with 125 nM Supplement Enzymatic Buffer (SEB) from the Cisbio kit.
2X FAC of enzyme and 2X FAC ATP diluted in 1X complete enzyme buffer is incubated at room temperature for 20 minutes to preactivate the enzyme. Following this preactivation step, 5 ul/well of enzyme+ATP mix is added using a Multidrop Micro to the assay plate, spotted with 0.2 ul 100% DMSO compound. This is left for 20 mins at room temperature before adding 5 ul of 2 uM TK-substrate-Biotin (from the Cisbio kit) diluted in 1X enzyme buffer (1 uM FAC) using the Multidrop Micro. The reaction is incubated at room temperature for the optimized assay reaction time (see table). The reaction is stopped by adding 10 ul/well HTRF Detection Buffer containing 0.25 uM Streptavidin-XL665 (0.125 uM FAC) and 1:200 TK Antibody-Cryptate using a Multidrop.
After the Detection Reagent addition, plates are covered and incubated at room temperature for 60 minutes. HTRF signal is read using an Envision reader, measured as a ratio of emissions at two different wavelengths, 620 nm and 665 nm. […] Test compound data are expressed as percentage inhibition defined by HPE and ZPE values for each plate. Percentage inhibition in the presence of test compound is plotted against compound concentration on a log scale to determine an IC50 from the resultant sigmoid curve.
Below are TrkA IC50 data generated using the PV3144 TrkA enzyme assay. Where more than one reading was taken, the arithmetic mean is presented.

[1] = PV3144 TrkA enzyme assay, recombinant His-tagged cytoplasmic domain aa 441-796, 4 nM enzyme, 40 uM ATP, arithmetic mean where more than one reading, read-out: Trka enzyme (IC50)

T1 sequence (P04629 441-796): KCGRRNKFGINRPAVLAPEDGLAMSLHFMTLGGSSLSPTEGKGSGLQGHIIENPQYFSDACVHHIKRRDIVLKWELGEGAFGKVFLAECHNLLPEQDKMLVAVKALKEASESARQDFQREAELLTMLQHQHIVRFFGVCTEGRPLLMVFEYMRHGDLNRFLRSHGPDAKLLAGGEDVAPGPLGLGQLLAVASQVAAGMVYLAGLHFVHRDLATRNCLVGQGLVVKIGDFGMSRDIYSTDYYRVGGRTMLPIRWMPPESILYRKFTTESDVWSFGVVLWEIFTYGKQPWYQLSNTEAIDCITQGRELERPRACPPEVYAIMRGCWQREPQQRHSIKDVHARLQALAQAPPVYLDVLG

Row | SMILES | IC50 [1] | IC50
1 | C[C@H](CO)n1cc(C(=O)c2cc(NC(=O)Cc3ccc(Cl)cc3)ccn2)c2cncnc21 [Example 28, 2-(4-chlorophenyl)-N-[2-({7-[(2R)-1-hydroxypropan-2-yl]-7H-pyrrolo[2,3-d]pyrimidin-5-yl}carbonyl)pyridin-4-yl]acetamide] | 111 nM | –
2 | Cc1cc(C)n(CC(=O)Nc2cc(C(=O)c3cn(CCO)c4ncncc34)ccn2)n1 [Example 139, 2-(3,5-dimethyl-1H-pyrazol-1-yl)-N-(4-{[7-(2-hydroxyethyl)-7H-pyrrolo[2,3-d]pyrimidin-5-yl]carbonyl}pyridin-2-yl)acetamide] | 760 nM | –
3 | O=C(Cc1ccc(Cl)cc1)Nc1cc(C(=O)c2cn(CC3(CO)COC3)c3ncncc23)ccn1 [Example 115, 2-(4-Chlorophenyl)-N-{4-[(7-{[3-(hydroxymethyl)oxetan-3-yl]methyl}-7H-pyrrolo[2,3-d]pyrimidin-5-yl)carbonyl}pyridin-2-yl]acetamide] | 126 nM | –
4 | CC(C)n1cc(C(=O)c2ccnc(NC(=O)Cc3ccc(OC4CC4)cc3)c2)c2cncnc21 [Example 72, 2-[4-(cyclopropyloxy)phenyl]-N-(4-{[7-(propan-2-yl)-7H-pyrrolo[2,3-d]pyrimidin-5-yl]carbonyl}pyridin-2-yl)acetamide] | 117 nM | –
5 | Cc1cc(C(=O)c2cn(C(C)C)c3ncncc23)cc(NC(=O)Cc2ccc(C#N)cc2)n1 [Example 76, 2-(4-cyanophenyl)-N-(6-methyl-4-{[7-(propan-2-yl)-7H-pyrrolo[2,3-d]pyrimidin-5-yl]carbonyl}pyridin-2-yl)acetamide] | 315 nM | –
6 | N#Cc1ccc(CC(=O)Nc2cc(C(=O)c3cn([C@H]4CC[C@@H](O)CC4)c4ncncc34)ccn2)cc1 [Example 5, 2-(4-cyanophenyl)-N-(4-{[7-(cis-4-hydroxycyclohexyl)-7H-pyrrolo[2,3-d]pyrimidin-5-yl]carbonyl}pyridin-2-yl)acetamide] | 75.6 nM | –
7 | C[C@@H](CO)n1cc(C(=O)c2cc(NC(=O)Cn3cc(C4CC4)nn3)ccn2)c2cncnc21 [Example 30, 2-(4-cyclopropyl-1H-1,2,3-triazol-1-yl)-N-[2-({7-[(2S)-1-hydroxypropan-2-yl]-7H-pyrrolo[2,3-d]pyrimidin-5-yl}carbonyl)pyridin-4-yl]acetamide] | 89.7 nM | –
8 | Cc1cc(C)n(CC(=O)Nc2cc(C(=O)c3cn(CC4CC4)c4ncncc34)ccn2)n1 [Example 176, N-(4-{[7-(Cyclopropylmethyl)-7H-pyrrolo[2,3-d]pyrimidin-5-yl]carbonyl}pyridin-2-yl)-2-(3,5-dimethyl-1H-pyrazol-1-yl)acetamide] | – | 107 nM
9 | CC(C)n1cc(C(=O)c2ccnc(NC(=O)Cc3ccccc3OC(F)(F)F)c2)c2cncnc21 [Example 119, N-(4-{[7-(propan-2-yl)-7H-pyrrolo[2,3-d]pyrimidin-5-yl]carbonyl}pyridin-2-yl)-2-[2-(trifluoromethoxy)phenyl]acetamide] | 71.1 nM | –
10 | Cc1ccnn1CC(=O)Nc1cc(C(=O)c2cn(CCO)c3ncncc23)ccn1 [Example 130, N-(4-{[7-(2-hydroxyethyl)-7H-pyrrolo[2,3-d]pyrimidin-5-yl]carbonyl}pyridin-2-yl)-2-(5-methyl-1H-pyrazol-1-yl)acetamide] | 1750 nM | –
11 | N#Cc1ccc(CC(=O)Nc2cc(C(=O)c3cn(CCO)c4ncncc34)ccn2)cc1 [Example 143, 2-(4-cyanophenyl)-N-(4-{[7-(2-hydroxyethyl)-7H-pyrrolo[2,3-d]pyrimidin-5-yl]carbonyl}pyridin-2-yl)acetamide] | 268 nM | –
12 | CC(C)n1cc(C(=O)c2ccnc(NC(=O)Cc3ccc(F)cc3)c2)c2cncnc21 [Example 153, 2-(4-fluorophenyl)-N-(4-{[7-(propan-2-yl)-7H-pyrrolo[2,3-d]pyrimidin-5-yl]carbonyl}pyridin-2-yl)acetamide] | 42 nM | –
13 | Cc1ccn(CC(=O)Nc2cc(C(=O)c3cn(CCO)c4ncncc34)ccn2)n1 [Example 128, N-(4-{[7-(2-hydroxyethyl)-7H-pyrrolo[2,3-d]pyrimidin-5-yl]carbonyl}pyridin-2-yl)-2-(3-methyl-1H-pyrazol-1-yl)acetamide] | 1230 nM | –
14 | CC(C)n1cc(C(=O)c2cc(NC(=O)Cc3ccc(F)cn3)ccn2)c2cnc(N)nc21 [Example 89, N-(2-{[2-amino-7-(propan-2-yl)-7H-pyrrolo[2,3-d]pyrimidin-5-yl]carbonyl}pyridin-4-yl)-2-(5-fluoropyridin-2-yl)acetamide] | 76.3 nM | –
15 | Cc1cc(C)n(CC(=O)Nc2cc(C(=O)c3cn([C@H]4CC[C@@H](O)CC4)c4ncncc34)ccn2)n1 [Example 4, 2-(3,5-dimethyl-1H-pyrazol-1-yl)-N-(4-{[7-(cis-4-hydroxycyclohexyl)-7H-pyrrolo[2,3-d]pyrimidin-5-yl]carbonyl}pyridin-2-yl)acetamide] | 74.3 nM | –
16 | CC(CO)n1cc(C(=O)c2ccnc(NC(=O)Cc3ccc(C#N)cc3)c2)c2cncnc21 (single isomer, unassigned) [Example 33, 2-(4-cyanophenyl)-N-(4-{[7-(1-hydroxypropan-2-yl)-7H-pyrrolo[2,3-d]pyrimidin-5-yl]carbonyl}pyridin-2-yl)acetamide] | 2560 nM | –
17 | CC1(n2cc(C(=O)c3cc(NC(=O)Cn4cc(C(F)(F)F)nn4)ccn3)c3cncnc32)COC1 [Example 171, N-(2-{[7-(3-methyloxetan-3-yl)-7H-pyrrolo[2,3-d]pyrimidin-5-yl]carbonyl}pyridin-4-yl)-2-[4-(trifluoromethyl)-1H-1,2,3-triazol-1-yl]acetamide] | 255 nM | –

Now from value to compound, other results behind:

Row | IC50 [1] | SMILES | IC50
18 | 28.9 nM | CC(C)n1cc(C(=O)c2ccnc(NC(=O)Cc3ccc(Cl)cc3)c2)c2cncnc21 [Example 67, 2-(4-chlorophenyl)-N-(4-{[7-(propan-2-yl)-7H-pyrrolo[2,3-d]pyrimidin-5-yl]carbonyl}pyridin-2-yl)acetamide] | –
19 | 16.4 nM | O=C(Cc1ccc(C(F)(F)F)cc1)Nc1cc(C(=O)c2cn(CCO)c3ncncc23)ccn1 [Example 141, N-(4-{[7-(2-hydroxyethyl)-7H-pyrrolo[2,3-d]pyrimidin-5-yl]carbonyl}pyridin-2-yl)-2-[4-(trifluoromethyl)phenyl]acetamide] | –
20 | 12.3 nM | CC(C)(CO)n1cc(C(=O)c2cc(NC(=O)Cn3ccc(C(F)(F)F)n3)ccn2)c2cncnc21 [Example 59, N-(2-{[7-(1-hydroxy-2-methylpropan-2-yl)-7H-pyrrolo[2,3-d]pyrimidin-5-yl]carbonyl}pyridin-4-yl)-2-[3-(trifluoromethyl)-1H-pyrazol-1-yl]acetamide] | –
21 | 10.9 nM | Cc1cc(C(F)(F)F)nn1CC(=O)Nc1cc(C(=O)c2cn(C(C)C)c3ncncc23)ccc1C#N [Example 35, N-(2-cyano-5-{[7-(propan-2-yl)-7H-pyrrolo[2,3-d]pyrimidin-5-yl]carbonyl}phenyl)-2-[5-methyl-3-(trifluoromethyl)-1H-pyrazol-1-yl]acetamide] | –
22 | 10.2 nM | CC(C)n1cc(C(=O)c2cc(NC(=O)Cn3ccc(C4CC4)n3)ccn2)c2cncnc21 [Example 83, 2-(3-cyclopropyl-1H-pyrazol-1-yl)-N-(2-{[7-(propan-2-yl)-7H-pyrrolo[2,3-d]pyrimidin-5-yl]carbonyl}pyridin-4-yl)acetamide] | –
23 | 21.5 nM | O=C(Cc1cccc(OC(F)(F)F)c1)Nc1cc(C(=O)c2cn(CCO)c3ncncc23)ccn1 [Example 135, N-(4-{[7-(2-hydroxyethyl)-7H-pyrrolo[2,3-d]pyrimidin-5-yl]carbonyl}pyridin-2-yl)-2-[3-(trifluoromethoxy)phenyl]acetamide] | –
24 | 11.5 nM | CC(C)(CO)n1cc(C(=O)c2ccc(C#N)c(NC(=O)Cn3ccc(C(F)(F)F)n3)c2)c2cnc(N)nc21 [Example 11, N-(5-{[2-amino-7-(1-hydroxy-2-methylpropan-2-yl)-7H-pyrrolo[2,3-d]pyrimidin-5-yl]carbonyl}-2-cyanophenyl)-2-[3-(trifluoromethyl)-1H-pyrazol-1-yl]acetamide] | –
25 | 5.71 nM | CC(C)n1cc(C(=O)c2cc(NC(=O)Cc3ccc(Cl)cc3)ccn2)c2cncnc21 [Example 47, 2-(4-Chloro-phenyl)-N-[2-(7-isopropyl-7H-pyrrolo[2,3-d]pyrimidine-5-carbonyl)-pyridin-4-yl]-acetamide] | –
26 | 20.9 nM | CC(C)n1cc(C(=O)c2ccnc(NC(=O)Cc3ccc(Cl)cn3)c2)c2cncnc21 [Example 74, 2-(5-chloropyridin-2-yl)-N-(4-{[7-(propan-2-yl)-7H-pyrrolo[2,3-d]pyrimidin-5-yl]carbonyl}pyridin-2-yl)acetamide] | –
